The values that follow come from ChEMBL document CHEMBL1139391, “Synthesis and structure-activity relationship of benzetimide derivatives as human CXCR3 antagonists” (Bioorg Med Chem Lett, 2008).

As usually defined, the IC50 is the concentration that inhibits the measured activity by half.

The target in assay [1] is T1, C-X-C chemokine receptor type 3 (Homo sapiens, UniProt P49682).
T1 sequence (P49682 whole entry): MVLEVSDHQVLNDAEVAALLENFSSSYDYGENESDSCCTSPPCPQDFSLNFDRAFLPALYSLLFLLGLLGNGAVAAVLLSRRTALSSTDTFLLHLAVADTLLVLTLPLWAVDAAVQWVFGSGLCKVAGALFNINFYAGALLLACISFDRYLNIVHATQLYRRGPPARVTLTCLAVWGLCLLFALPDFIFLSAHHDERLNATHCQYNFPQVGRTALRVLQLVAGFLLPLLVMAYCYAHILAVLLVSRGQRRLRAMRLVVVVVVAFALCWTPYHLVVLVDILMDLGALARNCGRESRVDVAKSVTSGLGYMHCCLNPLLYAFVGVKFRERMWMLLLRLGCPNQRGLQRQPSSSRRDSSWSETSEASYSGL
The experiment in a line: Antagonist activity at human CXCR3 expressed in CHO cells assessed as inhibition of ITAC-stimulated [35S]GTPgammaS binding pretreated 30 mins before ITAC challenge. In kind it is functional, cell-based.

Assay [2] concerns the target T2, Muscarinic acetylcholine receptor M2 (Homo sapiens, UniProt P08172).
T2 sequence (P08172 whole entry): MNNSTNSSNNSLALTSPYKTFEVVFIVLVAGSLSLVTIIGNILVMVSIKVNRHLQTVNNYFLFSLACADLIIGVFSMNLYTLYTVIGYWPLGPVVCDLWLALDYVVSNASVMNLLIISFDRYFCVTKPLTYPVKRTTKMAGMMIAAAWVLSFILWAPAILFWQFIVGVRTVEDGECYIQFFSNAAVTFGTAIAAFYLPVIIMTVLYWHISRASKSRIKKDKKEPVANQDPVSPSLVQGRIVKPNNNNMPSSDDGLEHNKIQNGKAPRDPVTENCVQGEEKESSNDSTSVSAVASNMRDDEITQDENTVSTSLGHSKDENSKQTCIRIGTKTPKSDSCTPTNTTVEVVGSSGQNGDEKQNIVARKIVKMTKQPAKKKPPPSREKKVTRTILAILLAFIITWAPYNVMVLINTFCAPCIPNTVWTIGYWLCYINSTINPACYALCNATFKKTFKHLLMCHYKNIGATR
The experiment in a line: Binding affinity to human muscarinic M2 receptor.

For assay [3], the target named is Muscarinic acetylcholine receptor M3 (Homo sapiens, UniProt P20309). The experiment in a line: Binding affinity to human muscarinic M3 receptor.
Sequence of Muscarinic acetylcholine receptor M3 (P20309 whole entry): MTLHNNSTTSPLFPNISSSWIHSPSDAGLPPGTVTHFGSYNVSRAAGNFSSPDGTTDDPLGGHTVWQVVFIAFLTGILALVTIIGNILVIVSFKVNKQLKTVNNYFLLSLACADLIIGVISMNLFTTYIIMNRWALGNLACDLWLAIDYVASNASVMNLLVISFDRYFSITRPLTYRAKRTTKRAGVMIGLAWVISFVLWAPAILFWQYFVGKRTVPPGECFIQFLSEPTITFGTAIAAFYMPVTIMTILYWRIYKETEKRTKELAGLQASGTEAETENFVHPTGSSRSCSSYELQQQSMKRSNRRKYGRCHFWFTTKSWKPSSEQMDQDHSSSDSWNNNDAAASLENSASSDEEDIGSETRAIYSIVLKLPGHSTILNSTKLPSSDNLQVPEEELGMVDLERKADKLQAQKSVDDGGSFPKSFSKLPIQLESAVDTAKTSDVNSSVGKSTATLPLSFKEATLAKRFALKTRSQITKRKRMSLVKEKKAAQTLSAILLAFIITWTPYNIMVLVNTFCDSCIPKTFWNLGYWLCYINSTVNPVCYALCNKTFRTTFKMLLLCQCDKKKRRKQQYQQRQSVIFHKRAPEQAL
The target of assay [4] is T3, Muscarinic acetylcholine receptor M1 (Homo sapiens, UniProt P11229).
T3 sequence (P11229 whole entry): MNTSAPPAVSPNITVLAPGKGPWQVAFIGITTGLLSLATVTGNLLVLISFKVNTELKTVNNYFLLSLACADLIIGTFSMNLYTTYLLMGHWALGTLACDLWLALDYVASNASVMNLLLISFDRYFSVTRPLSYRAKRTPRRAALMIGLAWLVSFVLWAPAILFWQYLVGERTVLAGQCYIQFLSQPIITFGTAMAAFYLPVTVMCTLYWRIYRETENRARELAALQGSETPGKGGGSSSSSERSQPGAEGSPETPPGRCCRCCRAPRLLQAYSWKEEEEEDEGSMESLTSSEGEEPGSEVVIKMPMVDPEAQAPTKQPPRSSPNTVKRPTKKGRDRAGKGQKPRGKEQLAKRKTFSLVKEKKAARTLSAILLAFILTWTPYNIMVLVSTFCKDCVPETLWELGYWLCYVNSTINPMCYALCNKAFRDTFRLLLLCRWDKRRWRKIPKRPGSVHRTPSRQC
Put plainly: Binding affinity to human muscarinic M1 receptor.

For `Nc1cccc(C2(C3CCN(Cc4ccc(Br)cc4)CC3)CCC(=O)NC2=O)c1` (racemic), the IC50 in assay [1] came out at 320 nM. For `O=C(Nc1ccccc1)N1CCCC(c2ccccc2)(C2CCN(Cc3ccc(Br)cc3)CC2)C1` (single isomer, unassigned; (-)), the half-maximal inhibitory concentration (IC50) in assay [2] is greater than 10000 nM; in assay [3] it was greater than 10000 nM; in assay [4] it was greater than 10000 nM; in assay [1] it was 30 nM. Take `O=C1CCC(c2ccc(F)cc2F)(C2CCN(Cc3ccc(Br)cc3)CC2)C(=O)N1` (single isomer, unassigned; (+)): the 50% inhibitory concentration (IC50) in assay [2] is less than 1 nM; in assay [3], less than 1 nM; in assay [4], less than 1 nM; in assay [1], 330 nM.

Regarding `O=C1CCC(c2ccccc2)(C2CCN(Cc3ccc(Br)cc3)CC2)C(=O)N1` (racemic), in assay [1], the IC50 was 780 nM. The same measure, in the same setting: the result for `O=C1CCC(c2ccc(F)cc2F)(C2CCN(Cc3ccc(Br)cc3)CC2)C(=O)N1` (racemic) reads 120 nM. Turning to `CCCN1C(=O)CCC(c2ccccc2)(C2CCN(Cc3ccc(Br)cc3)CC2)C1=O` (racemic), in assay [1], the IC50 was 5010 nM. `O=C1CCC(c2ccccc2)(C2CCN(Cc3ccc(Cl)c(F)c3)CC2)C(=O)N1` (single isomer, unassigned; (-)): the IC50 in assay [1] was found to be 340 nM. Still for that read-out and setting: the result for `Brc1ccc(CN2CCC(C3(c4ccccc4)CCCNC3)CC2)cc1` (racemic) reads greater than 10000 nM.

As to `O=C(N1CCCC(c2ccccc2)(C2CCN(Cc3ccc(Br)cc3)CC2)C1)C(F)(F)F` (racemic), the IC50 in assay [1] was found to be 690 nM. On to `CC(=O)N1CCCC(c2ccccc2)(C2CCN(Cc3ccc(Br)cc3)CC2)C1` (single isomer, unassigned; (+)), for which the IC50 in assay [2] is greater than 10000 nM; in assay [3], greater than 10000 nM; in assay [4] it was greater than 10000 nM; in assay [1], 2310 nM. On to `O=C(Nc1ccccc1)N1CCCC(c2ccccc2)(C2CCN(Cc3ccc(Br)cc3)CC2)C1` (single isomer, unassigned; (+)), for which the 50% inhibitory concentration (IC50) was greater than 10000 nM in assay [2], greater than 10000 nM in assay [3], 8900 nM in assay [4] and 6310 nM in assay [1]. For `NS(=O)(=O)N1CCCC(c2ccccc2)(C2CCN(Cc3ccc(Br)cc3)CC2)C1` (racemic), the IC50 in assay [1] is 210 nM. For the molecule `O=C1CCC(c2ccc(F)cc2F)(C2CCN(Cc3ccc(Br)cc3)CC2)C(=O)N1` (single isomer, unassigned; (-)), the IC50 is greater than 10000 nM in assay [2], greater than 10000 nM in assay [3], greater than 10000 nM in assay [4] and 60 nM in assay [1]. On to `O=C1CCC(c2ccccc2)(C2CCN(Cc3ccccc3)CC2)C(=O)N1` (racemic) [BENZETIMIDE], for which the IC50 in assay [1] is greater than 10000 nM. As for `O=C1CCC(c2ccc(F)cc2)(C2CCN(Cc3ccc(Br)cc3)CC2)C(=O)N1` (racemic), the IC50 in assay [1] was determined as 1260 nM. `NC(=O)CN1CCCC(c2ccccc2)(C2CCN(Cc3ccc(Br)cc3)CC2)C1` (stereo in doubt; (+)-47b): the IC50 in assay [2] is greater than 10000 nM; in assay [3] it was greater than 10000 nM; in assay [4] it was greater than 10000 nM; in assay [1], 60 nM. Take `O=C1CCC(c2ccccc2)(C2CCN(Cc3ccc(Cl)cc3)CC2)C(=O)N1` (racemic): in assay [1], the IC50 is 830 nM. For the molecule `CN1CCN(C(=O)c2cccc(C3(C4CCN(Cc5ccc(Br)cc5)CC4)CCC(=O)NC3=O)c2)CC1` (racemic), in assay [1], the concentration for half-maximal inhibition (IC50) is 1260 nM.

For `CC(=O)N1CCCC(c2ccccc2)(C2CCN(Cc3ccc(Br)cc3)CC2)C1` (single isomer, unassigned; (-)), the IC50 in assay [2] is 10000 nM; in assay [3], 3000 nM; in assay [4], 10000 nM; in assay [1], 110 nM. Consider `O=C1CCC(c2cccc(Cl)c2)(C2CCN(Cc3ccc(Br)cc3)CC2)C(=O)N1` (racemic), for which the IC50 in assay [1] came to 1450 nM.

Consider `COc1ccc(C2(C3CCN(Cc4ccc(Br)cc4)CC3)CCC(=O)NC2=O)cc1` (racemic), for which the IC50 in assay [1] turned out to be 3630 nM. Consider `COc1ccc(S(=O)(=O)O)cc1C1(C2CCN(Cc3ccc(Br)cc3)CC2)CCC(=O)NC1=O` (racemic), for which the IC50 in assay [1] turned out to be 170 nM.

With `COc1ccc(CN2CCC(C3(c4ccccc4)CCC(=O)NC3=O)CC2)cc1` (racemic), the IC50 in assay [1] stood at 4270 nM.

On to `O=C1CCC(c2ccccc2)(C2CCN(Cc3ccc(F)cc3)CC2)C(=O)N1` (racemic), for which the IC50 in assay [1] is 4570 nM. Consider `O=C1CCC(c2ccccc2)(C2CCN(Cc3ccc(Br)cc3)CC2)C(=O)N1` (single isomer, unassigned; (+)), for which the IC50 in assay [2] is less than 1 nM; in assay [3], less than 1 nM; in assay [4], less than 1 nM; in assay [1], 1330 nM. As for `CCOC(=O)N1CCCC(c2ccccc2)(C2CCN(Cc3ccc(Br)cc3)CC2)C1` (racemic), in assay [1], the half-maximal inhibitory concentration (IC50) was determined as 320 nM.

On to `O=CN1CCCC(c2ccccc2)(C2CCN(Cc3ccc(Br)cc3)CC2)C1` (racemic), for which, in assay [1], the IC50 is 150 nM. For `O=C1CCC(c2ccccc2)(C2CCN(Cc3ccccc3)CC2)C(=O)N1` (stereo in doubt; (-)-3a) [BENZETIMIDE], the IC50 in assay [2], in assay [3], in assay [4] and in assay [1] (cho) was greater than 10000 nM throughout. `O=C(C1CC1)N1CCCC(c2ccccc2)(C2CCN(Cc3ccc(Br)cc3)CC2)C1` (racemic): the IC50 in assay [1] is 180 nM. On to `O=C1CCC(c2ccccc2)(C2CCN(Cc3ccc(Cl)c(C(F)(F)F)c3)CC2)C(=O)N1` (racemic), for which the IC50 in assay [1] was found to be 2510 nM. For the molecule `CCC(=O)N1CCCC(c2ccccc2)(C2CCN(Cc3ccc(Br)cc3)CC2)C1` (racemic), the IC50 in assay [1] was 290 nM. Still for that read-out and setting: the result for `NC(=O)CN1CCCC(c2ccccc2)(C2CCN(Cc3ccc(Br)cc3)CC2)C1` (racemic) reads 80 nM; that for `O=C(Nc1ccccc1)N1CCCC(c2ccccc2)(C2CCN(Cc3ccc(Br)cc3)CC2)C1` (racemic), 60 nM. On the same count and under the same terms, the result for `NC(=O)N1CCCC(c2ccccc2)(C2CCN(Cc3ccc(Br)cc3)CC2)C1` (racemic) reads 250 nM. For the molecule `NC(=O)CN1CCCC(c2ccccc2)(C2CCN(Cc3ccc(Br)cc3)CC2)C1` (single isomer, unassigned; (-)), the 50% inhibitory concentration (IC50) in assay [2] is 2000 nM; in assay [3] it was 1100 nM; in assay [4] it was 5000 nM; in assay [1], 810 nM.

With `Cc1ccc(CN2CCC(C3(c4ccccc4)CCC(=O)NC3=O)CC2)cc1` (racemic) [MELETIMIDE], in assay [1], the IC50 came to 2400 nM. For `COc1cccc(C2(C3CCN(Cc4ccc(Br)cc4)CC3)CCC(=O)NC2=O)c1` (racemic), the IC50 in assay [1] turned out to be 1550 nM. With `CC(=O)N1CCCC(c2ccccc2)(C2CCN(Cc3ccc(Br)cc3)CC2)C1` (racemic), in assay [1], the IC50 stood at 140 nM. On to `O=C1CCC(c2ccccc2)(C2CCN(Cc3ccc(Cl)cc3Cl)CC2)C(=O)N1` (racemic), for which the IC50 in assay [1] came to 3160 nM.

Take `O=C1CCC(c2ccccc2)(C2CCN(Cc3ccccc3)CC2)C(=O)N1` (single isomer, unassigned; (+)) [BENZETIMIDE]: the half-maximal inhibitory concentration (IC50) in assay [2] is less than 1 nM; in assay [3], less than 1 nM; in assay [4], less than 1 nM; in assay [1] (cho), greater than 10000 nM.
